Experiment: gradient 5% acetonitrile 3 min, to 50% in 2 min, to 85% in 15 min, held 3 min, 100 µL/min
Details: column: Zorbax Extend-C18 2.1 x 50 mm; eluents: water / acetonitrile, 0.1% formic acid
Outline: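 Mixtures of ~100 pure standards were chromatographed on a Zorbax Extend-C18 column (2.1 × 50 mm, 1.8 μm) at 100 μL/min using water and acetonitrile, each with 0.1% formic acid. Detection used a quadrupole time-of-flight mass spectrometer in positive and negative ionization mode, and data collection spanned 3 months. Retention time was obtained from adduct peaks picked computationally and each checked manually.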

| SMILES | RP-LC retention time [s] |
| --- | --- |
| COCc1nncn1C1CCN(C(=O)C2(c3ccccc3)CC2)CC1 | 650 |
| COc1cccc2cc(-c3nnc(NC(=O)c4ccc([N+](=O)[O-])s4)o3)oc12 | 965 |
| COc1ccc(CNC(=O)C2CC(=O)N(c3ccc4c(c3)CCN4C(C)=O)C2)cc1 (centres undefined) | 664 |
| Cn1nc(C(=O)N2CCCC(C(=O)NC3CC3)C2)c2c1CCN(C(=O)c1c(F)cccc1F)C2 (centres undefined) | 660 |
| COc1ccc(N2C(=O)CCC(C(=O)NCCCN3CCC(C)CC3)C2c2ccc(F)cc2)cc1 (centres undefined) | 605 |
| CCOCc1nc(C2CCCN2S(=O)(=O)c2c(C)nn(C)c2C)no1 (centres undefined) | 691 |
| Cc1c(Cl)cccc1S(=O)(=O)Nc1ccc(Cn2cncn2)cc1 | 775 |
| Cn1cnc(-c2cc3nccc(Oc4ccc(NC(=S)NC(=O)Cc5ccccc5)cc4F)c3s2)c1 | 862 |
| CC(C)NC(=O)C1(c2ccc(NC(=O)C(C)C)cc2)CCCCC1 | 851 |
| CCOCc1nc(C2CCCN(C(=O)C3(c4ccccc4)CC3)C2)no1 (centres undefined) | 873 |
| Cc1noc(-c2ccc(OC3CN(C(=O)c4cccn4C)C3)cc2)n1 | 898 |
| Cc1ccccc1C(=O)CC1(O)C(=O)Nc2ccc(Br)cc21 (centres undefined) | 804 |
| COC(=O)c1cccc(NC(=O)CCc2cccc3[nH]ccc23)c1 | 847 |
| Cc1cc(C(=O)NCCc2ccco2)c2c(=O)n(C)c(=O)n(C)c2n1 | 688 |
| CCN(CC)C(=O)N1CCC2(CC1)CC(N1CCN(c3ccccc3)CC1)CCO2 (centres undefined) | 582 |
| Cc1nnc(C2CCCN(C(=O)c3cc(-c4ccc5c(c4)OCO5)n[nH]3)C2)s1 (centres undefined) | 654 |
| CCCCCCNC(=O)C1CC(=O)N(CCc2c[nH]c3ccc(C)cc23)C1 (centres undefined) | 864 |
| Cc1cc(-c2nc(-c3ccc(F)cc3)no2)c(C)n1CC(=O)N1CCCC(C)C1 (centres undefined) | 1180 |
| Cc1ccc(N2CCCS2(=O)=O)cc1NS(=O)(=O)CCc1ccccc1 | 784 |
| Cc1cc(C)c(S(=O)(=O)Nc2ccc(Cn3cncn3)cc2)c(C)c1 | 798 |

| SMILES | RP-LC retention time [s] |
| --- | --- |
| CCN1CCN(c2ccc(NC(=O)c3ccc(C)c(N4CCCC4=O)c3)cn2)C1=O | 600 |
| Cc1cc(C)cc(NC(=O)C2CCN(S(=O)(=O)c3c(C)[nH]c(C)c3C(=O)N3CCCC3)CC2)c1 | 695 |
| COc1cc(OC)cc(-c2nc(-c3ccc(-n4ccnc4)nc3)no2)c1 | 769 |
| COc1cc(Cl)ccc1C(=O)N1C[C@@H]2C[C@H](NC(=O)c3ccccc3)[C@H]1C2 | 759 |
| CCCN1C(=O)NC(=O)C2NCNC21 (centres undefined) | 604 |
| O=C(Cc1c[nH]c2ccccc12)NCCc1c[nH]c2ccc(Cl)cc12 | 857 |
| CCCn1c(=O)c(C)nc2cc(-c3noc(-c4ccc(OCC)cc4)n3)ccc21 | 1290 |
| Cc1nc(-c2ccccc2)sc1C(=O)Nc1nc(-c2ccc(F)cc2)cs1 | 1250 |
| O=C(c1ccccc1F)N1N=C(c2cccs2)CC1c1ccc2nccnc2c1 (centres undefined) | 791 |
| Cc1ccc(F)cc1NS(=O)(=O)c1ccc2c(c1)C(=O)N(C)c1ncccc1O2 | 924 |
| Cc1cccc(NC(=O)CN2CCN(Cc3nc4ccccc4[nH]3)CC2)c1C | 541 |
| COc1ccc(CSc2nc3ccccc3[nH]2)cc1 | 625 |
| CCc1nc(-c2csc(S(=O)(=O)N3CCCC(C(=O)NCc4cccs4)C3)c2)no1 (centres undefined) | 952 |
| COc1ccc(NS(=O)(=O)c2c[nH]c3ncccc23)cc1Cl | 729 |
| COc1cccc(C2Cn3nnc(-c4nc(-c5ccc(OC)c(F)c5)no4)c3CO2)c1 (centres undefined) | 1140 |
| COc1ccc(NS(=O)(=O)c2cc3c(s2)CCN(C(=O)C2CCC2)C3)cc1 | 831 |
| O=C1NC2(CCN(C(=O)NCc3ccccc3)CC2)Nc2c(Cl)cccc21 | 724 |
| CCCOc1nc2ccccc2nc1N1CCCC(C(=O)Nc2cc(C)cc(C)c2)C1 (centres undefined) | 1390 |
| O=C(NCc1cc(-c2cc3ccccc3o2)on1)c1ccc2c(c1)OCO2 | 856 |
| Cc1oc(C2CCN(S(=O)(=O)c3cc(F)ccc3F)CC2)nc1C(=O)N(C)C | 816 |

| SMILES | RP-LC retention time [s] |
| --- | --- |
| Cc1cccc2nnc(N3CCC(C(=O)N4CCC(C)CC4)CC3)n12 | 663 |
| O=C(CCC1CCCC1)Nc1nc(-c2ccccc2)cs1 | 1180 |
| CC1=NS(=O)(=O)N(C)C=C1C(=O)OCc1nc(-c2ccccc2)no1 | 944 |
| Cc1nn(C)c(C)c1S(=O)(=O)N1CCCC(OCc2noc(C3CCOCC3)n2)C1 (centres undefined) | 716 |
| COc1cccc(N2CCN(c3ccnc(SCC(=O)Nc4c(C)cc(C)cc4C)n3)CC2)c1 | 861 |
| COc1ccc(OC(=O)c2cn(CC(C)C)c(=O)c3ccccc23)cc1 | 1180 |
| CC(C)(Oc1ccc(Cl)cc1)C(=O)N1CCN(CC(O)c2cccs2)CC1 (centres undefined) | 603 |
| CCOC(=O)c1nc(Nc2cc(F)ccc2F)c2ccccc2n1 | 912 |
| Cc1noc(C2CN(C(=O)COc3ccc(Cl)cc3)CC23CCOCC3)n1 (centres undefined) | 768 |
| CCc1ccc(-c2cc3c(=O)n(Cc4noc(CN5CCCC5)n4)ccn3n2)cc1 | 694 |
| Clc1ccc(-c2noc3ncnc(N4CCN(c5ccccn5)CC4)c23)cc1 | 697 |
| O=C(c1cncc(Br)c1)N1CCN(c2ccc(-c3ccco3)nn2)CC1 | 603 |
| COc1ccc(OC)c(NC(=O)C2CCN(c3cc(N4CCSCC4)ncn3)CC2)c1 | 694 |
| COc1cccc(C(=O)N2CCc3c(c(-c4nc(C5CC5)no4)nn3C)C2)c1 | 800 |
| O=C(Cn1cnc(-c2noc(-c3ccc(F)cc3)n2)c1)NCc1ccc(Cl)cc1 | 917 |
| Cc1c(CNCc2ccco2)c(C(=O)O)c(C)n1Cc1ccccc1Cl | 720 |
| CCN(CC)C(=O)N1CCCN(S(C)(=O)=O)C(c2ccccc2)CC(=O)NCC1 (centres undefined) | 700 |
| N#Cc1ccccc1CN1CCCC(N2CCCC2)C1=O (centres undefined) | 574 |
| CC(=O)Nc1ccc(NC(=O)C2CC(=O)N(c3ccc4c(c3)CCN4C(=O)C3CC3)C2)cc1 (centres undefined) | 658 |
| O=C(N[C@H]1C[C@@H]2C[C@H]1N(C(=O)Cc1c(F)cccc1Cl)C2)c1cccnc1 | 695 |

Results, then the molecule that gave them:

| RP-LC retention time [s] | SMILES |
| --- | --- |
| 806 | O=C(Nc1ccccc1Cl)N(Cc1ccsc1)Cc1ccccn1 |
| 859 | Cc1ccc(NC(=O)Cn2nc3c(Oc4ccc(F)cc4)nccn3c2=O)cc1 |
| 1110 | CCCN1C(=O)COc2ccc(-c3noc(-c4ccc5cc[nH]c5c4)n3)cc21 |
| 810 | COC1CCC12CCN(C(=O)CC(C)C)CC2 (centres undefined) |
| 575 | O=C(NCC1CCCO1)c1ccc2ncnc(N3CCCC3)c2c1 (centres undefined) |
| 790 | Cc1ccc(N2CCC(NC(=O)NCCc3ccccc3)C2=O)cc1C (centres undefined) |
| 855 | CCc1noc(NC(C)=O)c1-c1ccc(C)c(S(=O)(=O)NCCc2ccccc2)c1 |
| 954 | Cc1nc(Cn2cccc2C(=O)NC2CCCCCCC2)no1 |
| 1060 | COc1ccc(OCc2ccc(C(=O)Nc3cc4c(cc3C(C)=O)OCO4)o2)cc1 |
| 753 | CCc1cc(-c2csc(S(=O)(=O)N3CCN(Cc4ccc5c(c4)OCO5)CC3)c2)on1 |
| 589 | COc1ccc2c(c1)sc1ncc(C(=O)N3CCN(c4ccccn4)CC3)c(=O)n12 |
| 880 | Cc1ccc(-c2ncc(C(=O)Nc3ccc4c(c3)OCCO4)c(-c3ccncc3)n2)cc1 |
| 961 | c1ccc(C(O[C@@H]2CCCN(CCc3ccc4c(c3)OCO4)C2)c2ccccc2)cc1 |
| 907 | COc1ccc(NC(=O)N(C)CCc2noc(COc3cc(C)cc(C)c3)n2)cc1 |
| 747 | COc1ccccc1OCC(=O)NCc1ccsc1 |
| 600 | O=C(Cn1c(-c2ccccc2F)nc2ccccc21)N1CCOCC1 |
| 1150 | CCCN1C(=O)COc2ccc(-c3noc(CCc4ccccc4)n3)cc21 |
| 769 | O=C(CCSc1ccccc1)Nc1cccc(-c2ccn[nH]2)c1 |
| 865 | Cc1nn(-c2ccccc2)c(C)c1CCc1nn2c(-c3ccccc3F)nnc2s1 |
| 655 | CN(C)C(=O)c1cc2c(s1)CCC(C(=O)NCc1ccc(N3CCOCC3)cc1)C2 (centres undefined) |
| 776 | CCOC(=O)C1CCN(C(=O)c2sc3ncn(CC(=O)N4CCCCC4C)c(=O)c3c2C)CC1 (centres undefined) |
| 627 | O=C(CN1C[C@H]2C[C@H](C1)[C@H]1CCCC(=O)N1C2)NCCC1=CCCCC1 |
| 893 | O=C(c1ccco1)N1CCN(c2ccc(-c3nc(-c4cccc(F)c4)no3)cn2)CC1 |
| 705 | O=C(NC1CCN(c2cc(-c3ccc(F)cc3)[nH]n2)C1)c1ccccc1 (centres undefined) |
| 766 | CCOc1cc(=O)n2c(c1C(=O)NC1CCc3ccccc31)CCCCC2 (centres undefined) |
| 750 | CC(C)CNC(=O)C1Cn2cccc2C(=O)N1CC(C)C (centres undefined) |
| 793 | Cc1nc(SCC(=O)Nc2nc3ccccc3s2)c2c(=O)n(C)c(=O)n(C)c2n1 |
| 742 | Cc1nc(OCC(=O)Nc2ccc(F)cc2F)c2ccccc2n1 |
| 792 | CCn1cc(NC(=O)Nc2nc(C)cs2)c2ccccc21 |
